From patent US20230330122A1, “PHARMACOLOGICAL TREATMENT OF AUTISM SPECTRUM DISORDER” (priority 2022, published 2023)

How the values were obtained:
[1] = system: SHANK3 autism mouse model; assay: Compulsive behavior in SHANK3 autism mouse model; assay type: in vivo
From the text: FIGS. 5 and 6 present data collected by experiments using a SH3 And Multiple Ankyrin Repeat Domains 3 (SHANK3) autism mouse model. SHANK3 was the first to be associated with autism which was used by Joao Peca et al. (2011) to create the mouse model currently in use. […] The SHANK family of proteins has been strongly implicated as a contributing factor in autism in certain individuals and sits at the core of the alleged autistic pathway. The SHANK proteins lie at the heart of this synaptic map of autistic pathology, binding to Metabotropic Glutamate Receptors (mGluRs) indirectly, via the Homer family of adaptor proteins, and to both N-methyl-D-aspartate receptors (NMDARS) and Neuroligins (NLGNs) indirectly, via guanylate kinase-associated protein (GKAP) and Postsynaptic density protein 95 (PSD-95). They also link to the actin cytoskeleton, providing a multivalent scaffold upon which to build the postsynaptic density.
Compulsive behavior was used as a readout to evaluate the effectiveness of autistic symptom amelioration through NMN treatment. […] A baseline was recorded for both groups. The effect of a placebo was evaluated for both groups. NMN was administered to subjects of each group and the results were recorded. The results of treatment with NMN over 1 week were also recorded.

[2] = system: OCD mouse models; details: 3 different mouse models; cited from earlier work

Row | SMILES | compulsive behavior in seconds observed over a 5-minute period ([1]; SHANK3 autistic group and control group, NMN administered, also NMN over 1 week, FIG. 5) | safety of treatment ([1]; SHANK3 mouse model, NMN treatment) | treating OCD [2]
1 | NC(=O)c1ccc[n+]([C@@H]2O[C@H](COP(=O)([O-])O)[C@@H](O)[C@H]2O)c1 [NMN, nicotinamide mononucleotide] | significantly reducing the exhibition of compulsive behavior | SAFE | 
2 | O=C(O)C(Cc1c[nH]c2ccccc12)N1C(=O)c2ccccc2C1=O (stereo not drawn) [RG108] |  |  | successful in treating OCD
